Read-outs that look alike come from different tables or passages of the source.
Key:
Format in all cases: cell-based, human
[1] = tested on: MV4;11 cells; experiment: Cell proliferation experiment (Alamar blue, 72 h), MV4;11; settings: read-out: Inhibitory activity IC50 on MV4;11
Method in brief: (§1)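 Log-phase cells were seeded in 96-well plates and exposed to compound in complete medium over a 5-fold dilution series, in duplicate, for 72 h. Alamar blue fluorescence was read per well and IC50 was obtained by four-parameter curve fitting.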

[2] = tested on: Daudi cells; experiment: Cell proliferation experiment, Daudi; settings: Daudi cells, read-out: Inhibitory activity IC50 on Daudi
Method in brief: as §1

[3] = tested on: MDA-MB-231 cells; experiment: Cell proliferation experiment, MDA-MB-231; settings: read-out: Inhibitory activity IC50 on MDA-MB-231
Method in brief: as §1

[4] = tested on: PC-3; experiment: Cell proliferation experiment, PC-3; settings: read-out: Inhibitory activity IC50 on PC-3
Method in brief: as §1

[5] = tested on: NCIH82 cells; experiment: Cell proliferation experiment, NCI-H82; settings: read-out: Inhibitory activity IC50 on NCI-H82
Method in brief: as §1

[6] = Homo sapiens, MV4-11, MV4;11 cells
[7] = Homo sapiens, MDA-MB-231, MDA-MB-231 cells
[8] = Homo sapiens, NCI-H82, NCI-H82 cells

| SMILES | IC50 [1, 6] [µM] | IC50 ([2]; Homo sapiens, Daudi) [µM] | IC50 [3, 7] [µM] | IC50 ([4]; Homo sapiens, PC-3, PC-3 cells) [µM] | IC50 [2] [µM] | IC50 ([3]; MDA-MB-231 cells) [µM] | IC50 [5, 8] [µM] | IC50 ([4]; PC-3 cells) [µM] | IC50 ([1]; MV4;11 cells) [µM] | IC50 ([5]; NCI-H82 cells) [µM] |
| --- | --- | --- | --- | --- | --- | --- | --- | --- | --- | --- |
| CC[C@@H]1C(=O)N(C)c2cnc(Nc3ccc(C(=O)N[C@H]4CC[C@@H](NCCOCCC#Cc5cccc6c5CN(C5CCC(=O)NC5=O)C6=O)CC4)cc3OC)nc2N1C1CCCC1 (some centres unmarked) [UB-180937] | < 0.01 | 0.01 to 0.1 | 0.01 to 0.1 | 0.01 to 0.1 |  |  |  |  |  |  |
| CC[C@@H]1C(=O)N(C)c2cnc(Nc3ccc(-c4cn(C5CCC(NCCOCCC#Cc6cccc7c6CN(C6CCC(=O)NC6=O)C7=O)CC5)nn4)cc3OC)nc2N1C1CCCC1 (some centres unmarked) [UB-180961] | < 0.01 | < 0.01 | < 0.01 | < 0.01 |  |  |  |  |  |  |
| CC[C@@H]1C(=O)N(C)c2cnc(Nc3ccc(-c4cn([C@H]5CC[C@@H](NCCOCCC#Cc6cccc7c6CN(C6CCC(=O)NC6=O)C7=O)CC5)nn4)cc3)nc2N1C1CCCC1 (some centres unmarked) [UB-181099] | < 0.01 |  |  | 0.01 to 0.1 | 0.01 to 0.1 | 0.01 to 0.1 |  |  |  |  |
| CC[C@@H]1C(=O)N(C)c2cnc(Nc3ccc(-c4cn([C@H]5CC[C@H](NCCOCCC#Cc6cccc7c6CN(C6CCC(=O)NC6=O)C7=O)CC5)nn4)cc3OC)nc2N1C1CCCC1 (some centres unmarked) [UB-181108] | < 0.01 | 0.01 to 0.1 | 0.01 to 0.1 | 0.01 to 0.1 |  |  |  |  |  |  |
| CNC(=O)c1ccccc1Nc1nc(Nc2ccc(N3CCN(C(=O)NCCCOCCNCCC#Cc4cccc5c4CN(C4CCC(=O)NC4=O)C5=O)CC3)cc2)ncc1Cl (centres unmarked) [UB-181111] | < 0.01 |  | > 1 | 0.1 to 1 |  |  | 0.01 to 0.1 |  |  |  |
| CNC(=O)c1ccccc1Nc1nc(Nc2ccc(N3CCN(C(=O)N[C@H]4CC[C@@H](NCCOCCC#Cc5cccc6c5CN(C5CCC(=O)NC5=O)C6=O)CC4)CC3)cc2)ncc1C#N (some centres unmarked) [UB-181112] | < 0.01 |  | > 1 | > 1 |  |  | 0.1 to 1 |  |  |  |
| CNC(=O)c1ccccc1Nc1nc(Nc2ccc(N3CCN(C(=O)N[C@H]4CC[C@@H](NCCOCCC#Cc5ccc6c(c5)CN(C5CCC(=O)NC5=O)C6=O)CC4)CC3)cc2)ncc1C#N (some centres unmarked) [UB-181114] | < 0.01 |  |  |  |  | > 1 | 0.1 to 1 | > 1 |  |  |
| CNC(=O)c1ncccc1Nc1nc(Nc2ccc(N3CCN(C(=O)N[C@H]4CC[C@@H](NCCOCCC#Cc5cccc6c5CN(C5CCC(=O)NC5=O)C6=O)CC4)CC3)cc2)ncc1C#N (some centres unmarked) [UB-181116] | 0.1 to 1 |  | > 1 | > 1 |  |  | > 1 |  |  |  |
| CNC(=O)c1ncccc1Nc1nc(Nc2ccc(N3CCN(C(=O)N[C@H]4CC[C@@H](NCCOCCC#Cc5ccc6c(c5)CN(C5CCC(=O)NC5=O)C6=O)CC4)CC3)cc2)ncc1C#N (some centres unmarked) [UB-181117] | 0.01 to 0.1 |  | > 1 | > 1 |  |  | > 1 |  |  |  |
| CNC(=O)c1ccccc1Nc1nc(Nc2ccc(N3CCN(C(=O)N[C@H]4CC[C@@H](NCCOCCC#Cc5cccc6c5CN(C5CCC(=O)NC5=O)C6=O)CC4)CC3)cc2)ncc1Cl (some centres unmarked) [UB-181119] |  |  |  |  |  | 0.1 to 1 |  | 0.01 to 0.1 | < 0.01 | 0.1 to 1 |
| CNC(=O)c1ccccc1Nc1nc(Nc2ccc(N3CCN(C(=O)N[C@H]4CC[C@@H](NCCOCCC#Cc5cccc6c5CN(C5CCC(=O)NC5=O)C6=O)CC4)CC3)cc2)ncc1Cl (some centres unmarked) [UB-181120] |  |  |  |  |  | 0.1 to 1 |  | 0.01 to 0.1 | < 0.01 | 0.1 to 1 |
| CNC(=O)c1ccccc1Nc1nc(Nc2ccc(N3CCN(C(=O)N[C@H]4CC[C@@H](NCCOCCC#Cc5ccc6c(c5)CN(C5CCC(=O)NC5=O)C6=O)CC4)CC3)cc2)ncc1C#N (some centres unmarked) [UB-181123] |  |  |  |  |  | 0.1 to 1 |  | 0.01 to 0.1 | < 0.01 | 0.1 to 1 |
| CNC(=O)c1ncccc1Nc1nc(Nc2ccc(N3CCN(C(=O)N[C@H]4CC[C@H](NCCOCCC#Cc5cccc6c5CN(C5CCC(=O)NC5=O)C6=O)CC4)CC3)cc2)ncc1C#N (some centres unmarked) [UB-181124] | 0.01 to 0.1 |  | > 1 | 0.01 to 0.1 |  |  | > 1 |  |  |  |
| CNC(=O)c1ccccc1Nc1nc(Nc2ccc(N3CCN(C(=O)NC4CCC(NCCOCCC#Cc5ccc6c(c5)CN(C5CCC(=O)NC5=O)C6=O)CC4)CC3)cc2)ncc1C#N (centres unmarked) [UB-181125] | 0.01 to 0.1 |  | > 1 | 0.1 to 1 |  |  | > 1 |  |  |  |
| CNC(=O)c1ncccc1Nc1nc(Nc2ccc(N3CCN(C(=O)NC4CCC(NCCOCCC#Cc5cccc6c5CN(C5CCC(=O)NC5=O)C6=O)CC4)CC3)cc2)ncc1Cl (centres unmarked) [UB-181128] | < 0.01 |  | > 1 | > 1 |  |  | > 1 |  |  |  |
| CNC(=O)c1ncccc1Nc1nc(Nc2ccc(N3CCN(C(=O)NC4CCC(NCCOCCC#Cc5ccc6c(c5)CN(C5CCC(=O)NC5=O)C6=O)CC4)CC3)cc2)ncc1Cl (centres unmarked) [UB-181129] | 0.01 to 0.1 |  | > 1 | > 1 |  |  | 0.1 to 1 |  |  |  |
| N#Cc1ccccc1Nc1nc(Nc2ccc(N3CCN(C(=O)N[C@H]4CC[C@@H](NCCOCCC#Cc5cccc6c5CN(C5CCC(=O)NC5=O)C6=O)CC4)CC3)cc2)ncc1Cl (some centres unmarked) [UB-181132] | < 0.01 |  | 0.1 to 1 | 0.1 to 1 |  |  | 0.1 to 1 |  |  |  |
| N#Cc1ccccc1Nc1nc(Nc2ccc(N3CCN(C(=O)N[C@H]4CC[C@@H](NCCOCCC#Cc5ccc6c(c5)CN(C5CCC(=O)NC5=O)C6=O)CC4)CC3)cc2)ncc1Cl (some centres unmarked) [UB-181133] | 0.01 to 0.1 |  | > 1 | 0.1 to 1 |  |  | 0.1 to 1 |  |  |  |
| N#Cc1ccccc1Nc1nc(Nc2ccc(C3CCN(C(=O)N[C@H]4CC[C@@H](NCCOCCC#Cc5cccc6c5CN(C5CCC(=O)NC5=O)C6=O)CC4)CC3)cc2)ncc1Cl (some centres unmarked) [UB-181134] | 0.01 to 0.1 |  | > 1 | > 1 |  |  | > 1 |  |  |  |
| N#Cc1ccccc1Nc1nc(Nc2ccc(C3CCN(C(=O)N[C@H]4CC[C@@H](NCCOCCC#Cc5ccc6c(c5)CN(C5CCC(=O)NC5=O)C6=O)CC4)CC3)cc2)ncc1Cl (some centres unmarked) [UB-181135] | 0.01 to 0.1 |  | > 1 | > 1 |  |  | > 1 |  |  |  |
| CS(=O)(=O)c1ccccc1Nc1nc(Nc2ccc(C3CCN(C(=O)N[C@H]4CC[C@H](NCCOCCC#Cc5cccc6c5CN(C5CCC(=O)NC5=O)C6=O)CC4)CC3)cc2)ncc1Cl (some centres unmarked) [UB-181139] | < 0.01 |  | 0.1 to 1 | 0.1 to 1 |  |  | 0.1 to 1 |  |  |  |
| CS(=O)(=O)c1ccccc1Nc1nc(Nc2ccc(C3CCN(C(=O)N[C@H]4CC[C@@H](NCCOCCC#Cc5ccc6c(c5)CN(C5CCC(=O)NC5=O)C6=O)CC4)CC3)cc2)ncc1Cl (some centres unmarked) [UB-181140] | < 0.01 |  | 0.1 to 1 | 0.1 to 1 |  |  | 0.1 to 1 |  |  |  |
| CC(=O)c1ccccc1Nc1nc(Nc2ccc(C3CCN(C(=O)N[C@H]4CC[C@H](NCCOCCC#Cc5cccc6c5CN(C5CCC(=O)NC5=O)C6=O)CC4)CC3)cc2)ncc1Cl (some centres unmarked) [UB-181146] | < 0.01 |  | > 1 | > 1 |  |  | > 1 |  |  |  |
| NC(=O)c1ccccc1Nc1nc(Nc2ccc(C3CCN(C(=O)N[C@H]4CC[C@H](NCCOCCC#Cc5cccc6c5CN(C5CCC(=O)NC5=O)C6=O)CC4)CC3)cc2)ncc1Cl (some centres unmarked) [UB-181147] | < 0.01 |  | 0.1 to 1 | 0.1 to 1 |  |  | 0.1 to 1 |  |  |  |
| CC(=O)c1ccccc1Nc1nc(Nc2ccc(C3CCN(C(=O)N[C@H]4CC[C@H](NCCOCCC#Cc5ccc6c(c5)CN(C5CCC(=O)NC5=O)C6=O)CC4)CC3)cc2)ncc1Cl (some centres unmarked) [UB-181151] | < 0.01 |  | > 1 | > 1 |  |  | 0.1 to 1 |  |  |  |
| NC(=O)c1ccccc1Nc1nc(Nc2ccc(C3CCN(C(=O)NC4CCC(NCCOCCC#Cc5ccc6c(c5)CN(C5CCC(=O)NC5=O)C6=O)CC4)CC3)cc2)ncc1Cl (centres unmarked) [UB-181152] | < 0.01 |  | 0.1 to 1 | 0.1 to 1 |  |  | 0.1 to 1 |  |  |  |

Reference: patent US20230210999A1, “TARGETED PROTEASE DEGRADATION (TED) PLATFORM” (EUBULUS BIOTHERAPEUTICS INC., priority 2020, published 2023)
